For test [1], the system named is U87MG cells. Nature of the test: Cellular assay: inhibition of 2-HG production in U87MG cells (LC-MS, 48 hours). To be noted: Homo sapiens, U-87 MG, 2-HG in media by LC-MS. It counts as cell-based. The method, boiled down: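 HT1080 or U87MG cells (5000/well, DMEM + 10% FBS) seeded overnight, then exposed to compound (0.2% DMSO final) for 48 h; medium 2-HG measured by LC-MS. Viability read by CellTiter-Glo luminescence at 72 h.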

The subject of test [2] is HT1080 cells. Nature of the test: Cellular assay: inhibition of 2-HG production in HT1080 cells (LC-MS, 48 hours). The conditions noted are these: Homo sapiens, HT-1080, 2-HG in media by LC-MS. It counts as cell-based. The protocol:
Cells (HT1080 or U87MG) were grown in T125 flasks in DMEM containing 10% FBS, 1× penicillin/streptomycin and 500 ug/mL G418 (present in U87MG cells only). They were harvested by trypsin and seeded into 96 well white bottom plates at a density of 5000 cell/well in 100 ul/well in DMEM with 10% FBS. No cells were placed in columns 1 and 12. Cells were incubated overnight at 37° C. in 5% CO2. The next day test compounds were made up at 2× the final concentration and 100 ul were added to each cell well. The final concentration of DMSO was 0.2% and the DMSO control wells were plated in row G. The plates were then placed in the incubator for 48 hours. At 48 hours, 100 ul of media was removed from each well and analyzed by LC-MS for 2-HG concentrations. The cell plate was placed back in the incubator for another 24 hours. At 72 hours post compound addition, 10 mL/plate of Promega Cell Titer Glo reagent was thawed and mixed. The cell plate was removed from the incubator and allowed to equilibrate to room temperature. Then 100 ul of Promega Cell Titer Glo reagent was added to each well of media. The cell plate was then placed on an orbital shaker for 10 minutes and then allowed to sit at room temperature for 20 minutes. The plate was then read for luminescence with an integration time of 500 ms.

Test [3] deals with IDH1 R132H (Homo sapiens, UniProt O75874, R132H). The experiment in a line: In vitro assay for IDH1 R132H inhibitors (NADPH/aKG, resazurin detection). The test is classed as biochemical. The conditions noted are these: Table 4B; 0.2 μg/ml IDH1 R132H, 50 minutes at room temperature; read-out: IC50, IDH1 R132H Inhibition. In a few lines: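 Reaction ran 50 min at room temperature in Tris pH 7.5 buffer with 150 mM NaCl, 10 mM MgCl2 and 0.03% BSA. Mix concentrations were 0.2 μg/ml mutant enzyme, 8 uM NADPH and 2 mM aKG. Detection added 30 μM resazurin, with resorufin fluorescence (Ex544/Em590) measured 5 min later.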
Sequence of IDH1 R132H (O75874 whole entry R132H): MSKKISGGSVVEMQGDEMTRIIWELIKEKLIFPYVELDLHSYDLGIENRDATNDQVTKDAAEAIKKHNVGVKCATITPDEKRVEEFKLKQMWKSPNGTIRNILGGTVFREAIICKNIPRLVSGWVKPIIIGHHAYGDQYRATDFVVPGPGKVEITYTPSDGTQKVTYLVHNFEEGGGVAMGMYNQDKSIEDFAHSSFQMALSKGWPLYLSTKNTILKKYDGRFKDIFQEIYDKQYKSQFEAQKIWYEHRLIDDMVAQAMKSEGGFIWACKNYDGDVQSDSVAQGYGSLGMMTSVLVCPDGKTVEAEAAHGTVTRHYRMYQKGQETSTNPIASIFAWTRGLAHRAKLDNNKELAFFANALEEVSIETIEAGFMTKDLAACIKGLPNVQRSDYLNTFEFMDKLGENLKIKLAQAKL
(In general: The colour change of resazurin is a common sign of viable cells or microbes.)

pIC50: −log10 of the molar value.

One may read the pIC50 as −log10 of the IC50, conventionally taken in molar units.

Consider `Cc1ccccc1C(C(=O)NC1CCCCC1)N(C(=O)CN1CCCc2ccccc21)c1ccn(C)n1` (stereo not drawn) [Compound 245], for which the negative logarithm of the IC50 (pIC50) in test [1] was 5.30 to 6.00; in test [2], 6.00 to 6.60; in test [3], 6.00 to 7.00.
Take `Cc1ccccc1C(C(=O)NC1CCCCC1)N(C(=O)Cn1ccnc1C)c1ccn(C)n1` (stereo not drawn) [Compound 246]: the negative-log IC50 (pIC50) in test [1] was 6.00 to 6.60; in test [2], 5.30 to 6.00; in test [3], 6.00 to 7.00.
In the case of `COc1cccc(NCC(=O)N(c2cccc(F)c2)C(C(=O)NC2CCCCC2)c2ccccc2C)c1` (stereo not drawn) [Compound 247], the pIC50 in test [1] is 6.00 to 6.60; in test [2], not below 6.60; in test [3], not below 7.00.
Taken in the same sequence, the figures for `Cc1ccccc1C(C(=O)NC1CCCCC1)N(C(=O)CN1CCN(C(=O)O[C@H]2CCOC2)CC1)c1cccc(F)c1` (stereo partly drawn) [Compound 248] were 5.30 to 6.00, 5.30 to 6.00 and 6.00 to 7.00.
As for `CCOC(=O)N1CCN(CC(=O)N(c2cccc(F)c2)C(C(=O)NC2CCCCC2)c2ccccc2C)CC1` (stereo not drawn) [Compound 249], the pIC50 in test [1] is 6.00 to 6.60; in test [2], 6.00 to 6.60; in test [3] it was 6.00 to 7.00.
As to `Cc1ccccc1C(C(=O)NC1CCCCC1)N(C(=O)CN1CCN(C(=O)OC(C)C)CC1)c1cccc(F)c1` (stereo not drawn) [Compound 250], the negative-log IC50 (pIC50) in test [1] was 5.30 to 6.00; in test [2], 5.30 to 6.00; in test [3], 6.00 to 7.00.
Consider `Cc1ccccc1C(C(=O)NC1CCCCC1)N(C(=O)CO[C@H]1CCOC1)c1cccc(F)c1` (stereo partly drawn) [Compound 251], for which the negative-log IC50 (pIC50) in test [1] was 6.00 to 6.60; in test [2], 6.00 to 6.60; in test [3], 6.00 to 7.00.
`Cc1ccccc1C(C(=O)NC1CCCCC1)N(C(=O)Cn1ccc2ncccc21)c1cccc(F)c1` (stereo not drawn) [Compound 252]: the negative-log IC50 (pIC50) is 6.00 to 6.60 in test [1], 5.30 to 6.00 in test [2] and 6.00 to 7.00 in test [3].
With `Cc1ccccc1C(C(=O)NC1CCCCC1)N(C(=O)CNc1ccc(F)cn1)c1cccc(F)c1` (stereo not drawn) [Compound 253], the negative-log IC50 (pIC50) in test [1] is 6.00 to 6.60; in test [2] it was not below 6.60; in test [3] it was not below 7.00.
For `Cc1ccccc1C(C(=O)NC1CCCCC1)N(C(=O)CNCc1cnccn1)c1cccc(F)c1` (stereo not drawn) [Compound 254], the values for the negative-log IC50 (pIC50) in test [1], in test [2] and in test [3] were 5.30 to 6.00, 5.30 to 6.00 and 6.00 to 7.00, respectively.
As to `Cc1ccccc1C(C(=O)NC1CCCCC1)N(C(=O)Cn1cnc2ccccc21)c1ccn(C)n1` (stereo not drawn) [Compound 255], the pIC50 in test [1] is 6.00 to 6.60; in test [2], not below 6.60; in test [3], 6.00 to 7.00.
In the case of `Cc1ccccc1C(C(=O)NC1CCCCC1)N(C(=O)CNCc1ccn(C)n1)c1cccc(F)c1` (stereo not drawn) [Compound 256], the negative-log IC50 (pIC50) in test [1] was 5.30 to 6.00; in test [2], 6.00 to 6.60; in test [3], 6.00 to 7.00.
Taken in the same sequence, the figures for `Cc1ccccc1C(C(=O)NC1CCCCC1)N(C(=O)CNCc1nccs1)c1cccc(F)c1` (stereo not drawn) [Compound 257] were 6.00 to 6.60, 6.00 to 6.60 and 6.00 to 7.00.
In the case of `Cc1ccccc1C(C(=O)NC1CCCCC1)N(C(=O)CNc1ccc(S(C)(=O)=O)cc1)c1cccc(F)c1` (stereo not drawn) [Compound 258], the pIC50 in test [1] was 6.00 to 6.60; in test [2], 6.00 to 6.60; in test [3] it was 6.00 to 7.00.
As for `Cc1ccccc1C(C(=O)NC1CCCCC1)N(C(=O)COC1CCOCC1)c1cccc(F)c1` (stereo not drawn) [Compound 259], the pIC50 in test [1] is 6.00 to 6.60; in test [2] it was 6.00 to 6.60; in test [3] it was 6.00 to 7.00.
`Cc1ccccc1C(C(=O)NC1CCCCC1)N(C(=O)COc1ccc(F)cn1)c1cccc(F)c1` (stereo not drawn) [Compound 260]: the pIC50 in test [1] is 6.00 to 6.60; in test [2] it was not below 6.60; in test [3], not below 7.00.
On to `Cc1ccccc1C(C(=O)NC1CCCCC1)N(C(=O)Cc1c[nH]c2ccncc12)c1cccc(F)c1` (stereo not drawn) [Compound 261], for which the negative logarithm of the IC50 (pIC50) in test [1] is 5.30 to 6.00; in test [2], 6.00 to 6.60; in test [3], 6.00 to 7.00.
Turning to `Cc1ccccc1C(C(=O)NC1CCCCC1)N(C(=O)C(=O)c1c[nH]c2ccccc12)c1cccc(F)c1` (stereo not drawn) [Compound 262], the negative-log IC50 (pIC50) in test [1] is 5.30 to 6.00; in test [2], 5.30 to 6.00; in test [3], 6.00 to 7.00.
In the case of `Cc1ccccc1C(C(=O)NC1CCCCC1)N(C(=O)Cc1ccc(OC(=O)N(C)C)cc1)c1cccc(F)c1` (stereo not drawn) [Compound 263], the figures for the pIC50 in test [1], in test [2] and in test [3] were 6.00 to 6.60, not below 6.60 and 6.00 to 7.00, respectively.
As to `Cc1ccccc1C(C(=O)NC1CCCCC1)N(C(=O)Cc1ccc(OC(=O)N2CCOCC2)cc1)c1cccc(F)c1` (stereo not drawn) [Compound 264], the values for the pIC50 in test [1], in test [2] and in test [3] were 6.00 to 6.60, 6.00 to 6.60 and 6.00 to 7.00, respectively.
Regarding `Cc1ccccc1C(C(=O)NC1CCCCC1)N(C(=O)CNc1cccc(C#N)c1)c1cccc(F)c1` (stereo not drawn) [Compound 265], the values for the pIC50 in test [1], in test [2] and in test [3] were 6.00 to 6.60, not below 6.60 and not below 7.00, respectively.
On the same counts, the results for `Cc1ccccc1C(C(=O)NC1CCCCC1)N(C(=O)Cn1cnc2cnccc21)c1cccc(F)c1` (stereo not drawn) [Compound 266] are less than 5.30, less than 5.30 and 6.00 to 7.00.
Taken in the same sequence, the figures for `Cc1ccccc1C(C(=O)NC1CCCCC1)N(C(=O)CNCc1cscn1)c1cccc(F)c1` (stereo not drawn) [Compound 267] were 5.30 to 6.00, 6.00 to 6.60 and 6.00 to 7.00.
With `Cc1ccccc1C(C(=O)NC1CCCCC1)N(C(=O)Cn1ccnc1C)c1cccc(Br)c1` (stereo not drawn) [Compound 268], the pIC50 is not below 6.60 in test [1], 5.30 to 6.00 in test [2] and 6.00 to 7.00 in test [3].
For `Cc1ccccc1C(C(=O)NC1CCCCC1)N(C(=O)C(=O)c1c[nH]c2ccncc12)c1cccc(F)c1` (stereo not drawn) [Compound 269], the values for the negative-log IC50 (pIC50) in test [1], in test [2] and in test [3] were 5.30 to 6.00, 5.30 to 6.00 and 6.00 to 7.00, respectively.
For `Cc1ccccc1C(C(=O)NC1CCCCC1)N(C(=O)C(=O)NCc1ccncc1)c1cccc(F)c1` (stereo not drawn) [Compound 270], the negative-log IC50 (pIC50) in test [1] is 5.30 to 6.00; in test [2], 5.30 to 6.00; in test [3], 6.00 to 7.00.
Take `Cc1ccccc1C(C(=O)NC1CCCCC1)N(C(=O)Cn1ccc2ccccc21)c1cccc(F)c1` (stereo not drawn) [Compound 271]: the figures for the pIC50 in test [1], in test [2] and in test [3] were 6.00 to 6.60, not below 6.60 and not below 7.00, respectively.
For the molecule `Cc1ccccc1C(C(=O)NC1CCCCC1)N(C(=O)CNc1cccnc1F)c1cccc(F)c1` (stereo not drawn) [Compound 272], the negative-log IC50 (pIC50) in test [1] was not below 6.60; in test [2] it was not below 6.60; in test [3] it was not below 7.00.
Turning to `Cc1ccccc1C(C(=O)NC1CCCCC1)N(C(=O)COc1cccnn1)c1cccc(F)c1` (stereo not drawn) [Compound 273], the results for the pIC50 in test [1], in test [2] and in test [3] were 6.00 to 6.60, 6.00 to 6.60 and 6.00 to 7.00, respectively.
Regarding `Cc1ccccc1C(C(=O)NC1CCCCC1)N(C(=O)Cc1c[nH]c2cccnc12)c1cccc(F)c1` (stereo not drawn) [Compound 275], the pIC50 in test [1] was 6.00 to 6.60; in test [2], not below 6.60; in test [3], not below 7.00.
On to `Cc1ccccc1C(C(=O)NC1CCCCC1)N(C(=O)Cc1c[nH]c2cnccc12)c1cccc(F)c1` (stereo not drawn) [Compound 276], for which the pIC50 in test [1] was not below 6.60; in test [2], not below 6.60; in test [3] it was not below 7.00.
Regarding `Cc1ccccc1C(C(=O)NC1CCCCC1)N(C(=O)CNc1ccccc1C#N)c1cccc(F)c1` (stereo not drawn) [Compound 278], the negative logarithm of the IC50 (pIC50) in test [1] was not below 6.60; in test [2], not below 6.60; in test [3] it was 6.00 to 7.00.
With `Cc1ccccc1C(C(=O)NC1CCCCC1)N(C(=O)CNc1ccc(C(F)(F)F)nc1)c1cccc(F)c1` (stereo not drawn) [Compound 279], the pIC50 in test [1] is less than 5.30; in test [2] it was 5.30 to 6.00; in test [3] it was 6.00 to 7.00.
On to `Cc1ccccc1C(C(=O)NC1CCCCC1)N(C(=O)CNc1ccnc(F)c1)c1cccc(F)c1` (stereo not drawn) [Compound 280], for which the values for the pIC50 in test [1], in test [2] and in test [3] were 5.30 to 6.00, 5.30 to 6.00 and 6.00 to 7.00, respectively.
On to `Cc1ccccc1C(C(=O)NC1CCCCC1)N(C(=O)COCc1ccccn1)c1cccc(F)c1` (stereo not drawn) [Compound 281], for which the pIC50 in test [1] is 6.00 to 6.60; in test [2] it was not below 6.60; in test [3] it was 6.00 to 7.00.
On to `Cc1ccccc1C(C(=O)NC1CCCCC1)N(C(=O)COCc1cnccn1)c1cccc(F)c1` (stereo not drawn) [Compound 282], for which the negative-log IC50 (pIC50) in test [1] was less than 5.30; in test [2], 6.00 to 6.60; in test [3], 6.00 to 7.00.
As to `Cc1ccccc1C(C(=O)NC1CCCCC1)N(C(=O)C(C)c1c[nH]c2ccccc12)c1cccc(F)c1` (stereo not drawn) [Compound 283], the pIC50 in test [1] is 6.00 to 6.60; in test [2] it was 6.00 to 6.60; in test [3] it was 6.00 to 7.00.

For the origin of these results see patent publication US20130184222A1, “[…] ACTIVE COMPOSITIONS AND THEIR METHODS OF USE” (AGIOS PHARMACEUTICALS, INC, priority 2010, published 2013).
